Assay results taken from patent publication US12064420B2, “Tie-2 activators targeting the Schlemm's canal” (EyePoint Pharmaceuticals, Inc., priority 2019, dated 2024).

Columns and labels:
mouse eyes = assay: Outflow facility in enucleated mouse eyes (iPerfusion); type: in vivo
Method: An iPerfusion system was used to measure outflow facility in mice. The system is designed to measure outflow facility in paired mouse eyes having low flow rates (nL/min). Outflow facility is a measure of the ability of aqueous humor to flow from the trabecular meshwork to maintain a steady state TOP.
After three days of treatment with either Compound 1 or placebo, eyes were enucleated, and outflow facility was measured in a masked fashion. Briefly, mice were euthanized using isoflurane and freshly enucleated, paired mouse eyes were mounted on two stabilization platforms in temperature-controlled perfusion chambers by using a small amount of cyanoacrylate glue. […]
Both eyes of the mice were perfused at 9 mmHg for 45-60 min to allow acclimatization and to deliver the drug or vehicle to the outflow pathway, followed by 9 sequential pressure steps of 4.5, 6, 7.5, 9, 10.5, 12, 15, 18, and 21 mmHg. The outflow from the eye was measured at multiple pressures to calculate the outflow facility.
A non-linear flow-pressure model was used to account for the pressure dependence of outflow facility in mice. The reference facility was analyzed at a reference pressure of 8 mmHg, which approximates the physiological pressure drop across the conventional outflow pathway in living mice. […]

Tie-2 = Tie-2 phosphorylation in Schlemm's canal, whole mount immunofluorescence; type: in vivo, mouse; conditions: 1 hour after single topical ocular administration of 4% eye drops
Method: VE-PTP expression was assessed in the endothelium of SC in VE-PTP knock-in reporter mice expressing a nuclear-localizing β-galactosidase from the endogenous VE-PTP promoter (VE-PTP+/mut). C57BL/6JRj mice were also used in the experiments as control animals. Mice were anaesthetized using ketamine (125 mg/kg) and xylazine (12.5 mg/kg). 10 μL of Compound 1 eye drop solution (4% Compound 1) or vehicle was applied to each eye. Mice were euthanized 1 hour following dosing, and the eyes were processed for immunofluorescence analysis to detect Tie-2 phosphorylation. […]
To evaluate VE-PTP mediated signaling, tyrosine phosphorylation and activation of Tie-2 in SC following VE-PTP inhibition was assessed one hour following a single topical ocular administration of Compound 1. […]

C57B16 mice = assay: Schlemm's canal area in mice (PECAM-1 staining); type: in vivo, mouse; conditions: 4% eye drops (5 μL) BID for 4 weeks, 4-week old mice
Method: Prior to application of eye drops, mice were anaesthetized using an isoflurane evaporator. Whole mounts of corneas were stained for PECAM-1 (FIG. 6A) and SC areas were measured (FIG. 6B). As depicted in FIG. 6A, 20× fields shown represent an area of […]. Images were captured as Z stacks with a step size of 0.89 μm and a pinhole of 1 airy unit, and are shown as maximum intensity projections. For quantification (FIG. 6B), SC area was measured in sixteen 20× images per condition for 4 eyes of 2 mice; *p≤0.05. Treatment with Compound 1 enhanced SC area by about 12.2% (±4.7%; p=0.022) with topical ocular Compound 1 treatment compared to vehicle.

[1] = test system: New Zealand White rabbits; assay: Local tolerance in rabbits (slit lamp biomicroscopy, McDonald-Shadduck scoring); type: in vivo, rabbit; conditions: slit lamp biomicroscopy during the study

## COC(=O)N[C@@H](Cc1ccccc1)C(=O)N[C@@H](Cc1ccc(NS(=O)(=O)O)cc1)c1csc(-c2cccs2)n1 [Compound 1, 4-{(S)-2-[(S)-2-(Methoxycarbonylamino)-3-phenylpropanamido]-2-[2-(thiophen-2-yl)thiazol-4-yl]ethyl}phenylsulfamic acid]
Mouse eyes; eyes dosed three days QD with 4% Compound 1, perfused with 10 μM, reference pressure 8 mmHg
  outflow facility: 3.4±0.4 nL/min/mmHg
Mouse eyes; versus placebo-treated contralateral eyes
  increase of outflow facility compared to control: 33%
Tie-2
  staining of Schlemm's canal for tyrosine phosphorylated Tie-2 (pY992-Tie-2): enhanced
C57B16 mice
  enhancement of Schlemm's canal area compared to vehicle: about 12.2%
[1]
  adverse effects on local tolerance: No adverse effects
